# Patent US20230192686A1, “1H-PYRROLO[2,3-B]PYRIDINES AND PREPARATION AND USES THEREOF” (BioSplice Therapeutics, Inc., priority 2021, published 2023)
# Biological target: recombinant DYRK1A kinase (Homo sapiens, UniProt Q13627)
# Assay: DYRK1A kinase assay (Ser/Thr 18 peptide Z-lyte FRET)
# Format: biochemical
# Settings: DYRK1A kinase activity; 15 μM ATP, 4 μM Ser/Thr peptide 18, one hour at room temperature
# Procedure: Representative compounds were screened using the assay procedure for DYRK1A kinase activity as described below.
# Each compound was dissolved in DMSO as a 10 mM stock and used to prepare compound source plates. Serial dilution (1:3, 11-point dose-response curves from 10 μM to 0.00016 μM) and compound transfer was performed using the ECHO 550 (Labcyte, Sunnyvale, Calif.) into 1536-well black-walled round bottom plates (Corning).
# The DYRK1A kinase assay was run using the Ser/Thr 18 peptide Z-lyte assay kit according to manufacturer's instructions (Life Technologies—a Division of Thermo-Fisher). This is a non-radioactive assay using fluorescence resonance energy transfer (FRET) between coumarin and fluorescein to detect kinase activity which is represented as a ratio of coumarin emission/fluorescein emission.
# Briefly, recombinant DYRK1A kinase, ATP and Ser/Thr peptide 18 were prepared in 1× Kinase buffer to final concentrations of 0.25 μg/mL, 15 μM, and 4 μM respectively. The mixture was allowed to incubate with the representative compounds for one hour at room temperature. All reactions were performed in duplicate. Unphosphorylated (“0% Control”) and phosphorylated (“100% control”) forms of Ser/Thr 18 served as control reactions. Additionally, an 11-point dose-response curve of Staurosporine (1 uM top) was run to serve as a positive compound control.
# After incubation, Development Reagent A was diluted in Development Buffer then added to the reaction and allowed to further incubate for one hour at room temperature. The plate was read at Ex 400 Em 455 to detect the coumarin signal and Ex 400 Em 520 to measure the signal (EnVision Multilabel Plate Reader, PerkinElmer).
# The Emission ratio (Em) was calculated as a ratio of the coumarin (C) emission signal (at 445 nm)/Fluorescein (F) emission signal (at 520 nm). The percent phosphorylation was then calculated using the following formula: [1−((Em ratio×F100%)−C100%)/((C0%−C100%)+(Em ratio×(F100%−F0%)))]. Dose-response curves were generated, and inhibitory concentration (IC50) values were calculated using non-linear regression curve fit in the Dotmatics' Studies Software (Bishops Stortford, UK).
row,SMILES,EC50 [nM]
1,"c1cnc2[nH]cc(-c3ccnc4[nH]ccc34)c2c1 [Compound 2, 1H,1′H-3,4′-Bipyrrolo[2,3-b]pyridine]",50
2,"Cn1cc2cc(-c3c[nH]c4ncccc34)ccc2n1 [Compound 3, 2-Methyl-5-(1H-pyrrolo[2,3-b]pyridin-3-yl)-2H-indazole]",6
3,"c1cnc2sc(-c3c[nH]c4ncccc34)nc2c1 [Compound 4, 2-(1H-Pyrrolo[2,3-b]pyridin-3-yl)thiazolo[5,4-b]pyridine]",7
4,"c1cnc2[nH]cc(-c3cc4ccncc4s3)c2c1 [Compound 5, 2-(1H-Pyrrolo[2,3-b]pyridin-3-yl)thieno[2,3-c]pyridine]",10
5,"c1cnc2[nH]cc(-c3nc4cnccc4[nH]3)c2c1 [Compound 7, 2-(1H-Pyrrolo[2,3-b]pyridin-3-yl)-1H-imidazo[4,5-c]pyridine]",201
6,"O=C1NCCn2nc(-c3c[nH]c4ncccc34)cc21 [Compound 8, 2-(1H-Pyrrolo[2,3-b]pyridin-3-yl)-6,7-dihydropyrazolo[1,5-a]pyrazin-4(5H)-one]",7
7,"CC1(C)NC(=O)c2cc(-c3c[nH]c4ncccc34)nn21 [Compound 9, 6,6-Dimethyl-2-(1H-pyrrolo[2,3-b]pyridin-3-yl)-5,6-dihydro-4H-imidazo[1,5-b]pyrazol-4-one]",19
8,"O=C1NCCn2cc(-c3c[nH]c4ncccc34)cc21 [Compound 10, 7-(1H-Pyrrolo[2,3-b]pyridin-3-yl)-3,4-dihydropyrrolo[1,2-a]pyrazin-1(2H)-one]",14
9,"O=C1NCCc2sc(-c3c[nH]c4ncccc34)cc21 [Compound 11, 2-(1H-Pyrrolo[2,3-b]pyridin-3-yl)-6,7-dihydrothieno[3,2-c]pyridin-4(5H)-one]",12
10,"c1cnc2[nH]cc(-c3ccc4nccn4c3)c2c1 [Compound 12, 6-(1H-Pyrrolo[2,3-b]pyridin-3-yl)imidazo[1,2-a]pyridine]",3
11,"Cc1cn2cc(-c3c[nH]c4ncccc34)cc(F)c2n1 [Compound 13, 8-Fluoro-2-methyl-6-(1H-pyrrolo[2,3-b]pyridin-3-yl)imidazo[1,2-a]pyridine]",21
12,"CN(C)Cc1cnc2ccc(-c3c[nH]c4ncccc34)cn12 [Compound 18, 1-(6-(1H-Pyrrolo[2,3-b]pyridin-3-yl)imidazo[1,2-a]pyridin-3-yl)-N,N-dimethylmethanamine]",17
13,"c1cnc2[nH]cc(-c3cn4ccnc4cn3)c2c1 [Compound 20, 6-(1H-Pyrrolo[2,3-b]pyridin-3-yl)imidazo[1,2-a]pyrazine]",10
14,"CN1CCN(C(=O)c2cnc3cnc(-c4c[nH]c5ncccc45)cn23)CC1 [Compound 21, (6-(1H-Pyrrolo[2,3-b]pyridin-3-yl)imidazo[1,2-a]pyrazin-3-yl)(4-methylpiperazin-1-yl)methanone]",16
15,"Cc1nc2c(F)cc(-c3c[nH]c4ncccc34)cc2n1C1CCNCC1 [Compound 23, 4-Fluoro-2-methyl-1-(piperidin-4-yl)-6-(1H-pyrrolo[2,3-b]pyridin-3-yl)-1H-benzo[d]imidazole]",2
16,"Cc1nc2ccc(-c3c[nH]c4ncccc34)nc2n1C(C)C [Compound 27, 3-Isopropyl-2-methyl-5-(1H-pyrrolo[2,3-b]pyridin-3-yl)-3H-imidazo [4,5-b]pyridine]",2
17,"c1cnc2[nH]cc(-c3ccc4nc5n(c4n3)CCC5)c2c1 [Compound 28, 2-(1H-Pyrrolo[2,3-b]pyridin-3-yl)-7,8-dihydro-6H-pyrrolo [2′,1′:2,3]imidazo[4,5-b]pyridine]",19
18,"c1cnc2[nH]cc(-c3ccc4ncnn4c3)c2c1 [Compound 29, 6-(1H-Pyrrolo[2,3-b]pyridin-3-yl)-[1,2,4]triazolo[1,5-a]pyridine]",10
19,"Cn1nnc2ccc(-c3c[nH]c4ncccc34)cc21 [Compound 31, 1-Methyl-6-(1H-pyrrolo[2,3-b]pyridin-3-yl)-1H-benzo[d][1,2,3]triazole]",4
20,"Cc1nnc2ccc(-c3c[nH]c4ncccc34)cn12 [Compound 32, 3-Methyl-6-(1H-pyrrolo[2,3-b]pyridin-3-yl)-[1,2,4]triazolo[4,3-a] pyridine]",151
21,"Cc1cnc2ccc(-c3c[nH]c4ncccc34)nn12 [Compound 34, 3-Methyl-6-(1H-pyrrolo[2,3-b]pyridin-3-yl)imidazo[1,2-b]pyridazine]",2
22,"OCc1cnc2ccc(-c3c[nH]c4ncccc34)nn12 [Compound 35, (6-(1H-Pyrrolo[2,3-b]pyridin-3-yl)imidazo[1,2-b]pyridazin-3-yl) methanol]",2

# The next lines start with the values.
row,EC50 [nM],SMILES
1,1,"CN1CCC(NC(=O)c2cnc3ccc(-c4c[nH]c5ncccc45)cn23)CC1 [Compound 14, N-(1-Methylpiperidin-4-yl)-6-(1H-pyrrolo[2,3-b]pyridin-3-yl)imidazo[1,2-a]pyridine-3-carboxamide]"
2,1,"Cc1nc2c(F)cc(-c3c[nH]c4ncccc34)cc2n1C1CCN(C)CC1 [Compound 24, 4-Fluoro-2-methyl-1-(1-methylpiperidin-4-yl)-6-(1H-pyrrolo[2,3-b]pyridin-3-yl)-1H-benzo[d]imidazole]"
3,13,"c1cnc2[nH]cc(-c3ccn4ncnc4c3)c2c1 [Compound 30, 7-(1H-Pyrrolo[2,3-b]pyridin-3-yl)-[1,2,4]triazolo[1,5-a]pyridine]"
4,2,"c1cnc2[nH]cc(-c3ccn4nccc4c3)c2c1 [Compound 36, 3-(Pyrazolo[1,5-a]pyridin-5-yl)-1H-pyrrolo[2,3-b]pyridine]"
5,2,"c1cncc(-c2cnn3ccc(-c4c[nH]c5ncccc45)cc23)c1 [Compound 38, 3-(3-(Pyridin-3-yl)pyrazolo[1,5-a]pyridin-5-yl)-1H-pyrrolo[2,3-b] pyridine]"
6,2,"O=C(NCC1(F)CNC1)c1cnn2ccc(-c3c[nH]c4ncccc34)cc12 [Compound 41, N-((3-Fluoroazetidin-3-yl)methyl)-5-(1H-pyrrolo[2,3-b]pyridin-3-yl) pyrazolo[1,5-a]pyridine-3-carboxamide]"
7,2,"CN1CC(F)(CNC(=O)c2cnn3ccc(-c4c[nH]c5ncccc45)cc23)C1 [Compound 42, N-((3-Fluoro-1-methylazetidin-3-yl)methyl)-5-(1H-pyrrolo[2,3-b]pyridin-3-yl)pyrazolo[1,5-a]pyridine-3-carboxamide]"
8,1,"O=C(N[C@@H]1CCNC[C@H]1F)c1cnn2ccc(-c3c[nH]c4ncccc34)cc12 [Compound 43, N-((3R,4R)-3-Fluoropiperidin-4-yl)-5-(1H-pyrrolo[2,3-b]pyridin-3-yl) pyrazolo[1,5-a]pyridine-3-carboxamide]"
9,1,"CN1CC[C@@H](NC(=O)c2cnn3ccc(-c4c[nH]c5ncccc45)cc23)[C@H](F)C1 [Compound 44, N-((3R,4R)-3-Fluoro-1-methylpiperidin-4-yl)-5-(1H-pyrrolo[2,3-b]pyridin-3-yl)pyrazolo[1,5-a]pyridine-3-carboxamide]"
10,1,"CN1CCC(NC(=O)c2cnn3ccc(-c4c[nH]c5ncccc45)cc23)CC1 [Compound 45, N-(1-Methylpiperidin-4-yl)-5-(1H-pyrrolo[2,3-b]pyridin-3-yl) pyrazolo[1,5-a]pyridine-3-carboxamide]"
11,5,"CN1CCC(N(C)C(=O)c2cnn3ccc(-c4c[nH]c5ncccc45)cc23)CC1 [Compound 46, N-Methyl-N-(1-methylpiperidin-4-yl)-5-(1H-pyrrolo[2,3-b]pyridin-3-yl)pyrazolo[1,5-a]pyridine-3-carboxamide]"
12,2,"O=C(NC1CCN(C2CC2)CC1)c1cnn2ccc(-c3c[nH]c4ncccc34)cc12 [Compound 47, N-(1-Cyclopropylpiperidin-4-yl)-5-(1H-pyrrolo[2,3-b]pyridin-3-yl) pyrazolo[1,5-a]pyridine-3-carboxamide]"
13,1,"O=C(NC1CCN(CC2CC2)CC1)c1cnn2ccc(-c3c[nH]c4ncccc34)cc12 [Compound 48, N-(1-(cyclopropylmethyl)piperidin-4-yl)-5-(1H-pyrrolo[2,3-b]pyridin-3-yl)pyrazolo[1,5-a]pyridine-3-carboxamide]"
14,1,"CC(F)(F)CN1CCC(NC(=O)c2cnn3ccc(-c4c[nH]c5ncccc45)cc23)CC1 [Compound 49, N-(1-(2,2-Difluoropropyl)piperidin-4-yl)-5-(1H-pyrrolo[2,3-b]pyridin-3-yl)pyrazolo[1,5-a]pyridine-3-carboxamide]"
15,1,"COCCN1CCC(NC(=O)c2cnn3ccc(-c4c[nH]c5ncccc45)cc23)CC1 [Compound 50, N-(1-(2-Methoxyethyl)piperidin-4-yl)-5-(1H-pyrrolo[2,3-b]pyridin-3-yl)pyrazolo[1,5-a]pyridine-3-carboxamide]"
